{
  "source": "patent US5504101A",
  "about": "“5-HT-1D receptor ligands” (priority 1994, dated 1996)",
  "data": [
    {"target": "T1, 5-HT1Dβ receptor (Homo sapiens, UniProt P28222)", "T1 construct": "expressed in transfected cells", "T1 sequence (P28222 whole entry)": "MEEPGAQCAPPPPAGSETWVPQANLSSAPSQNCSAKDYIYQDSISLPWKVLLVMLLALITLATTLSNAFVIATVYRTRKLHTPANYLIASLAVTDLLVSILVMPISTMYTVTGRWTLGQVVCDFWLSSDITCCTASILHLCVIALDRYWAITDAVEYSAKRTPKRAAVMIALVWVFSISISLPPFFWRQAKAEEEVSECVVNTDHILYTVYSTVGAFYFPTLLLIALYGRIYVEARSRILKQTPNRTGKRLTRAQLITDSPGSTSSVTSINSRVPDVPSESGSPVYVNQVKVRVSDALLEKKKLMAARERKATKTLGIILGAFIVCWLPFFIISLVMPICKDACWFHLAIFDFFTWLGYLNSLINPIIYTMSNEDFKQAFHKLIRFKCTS", "experiment": "biochemical", "assay_type": "binding", "conditions": "^3 H-5-HT radioligand; membranes from recombinant cells; 15 minute incubation at 37° C.; test compound 10^-11 M to 10^-5 M", "units": {"Ki": "nM"}, "method": "The assay protocol generally entailed the incubation of membranes prepared from cells expressing the 1Dβ sub-type of 5-HT1D receptors, with ^3 H-5-HT. Increasing concentrations of the test compound were incubated with the radioligand and the membrane homogenates prepared from the recombinant cells. After a 15 minute incubation at 37° C., the incubation was terminated by vacuum filtration. The filters were washed with buffer and counted for radioactivity using liquid scintillation spectrometry. The affinity of the test compound for 5-HT1DIβ receptor was determined by computer-assisted analysis of the data and by determining the amount of the compound necessary to inhibit 50% of the binding of the radioligand to the receptor. Concentrations ranging from 10^-11 M to 10^-5 M of the test compounds were evaluated.", "values": [
      {"smiles": "COc1ccc(CCc2ccc3[nH]cc(CCN)c3c2)cc1", "note": "[4-MeO--Ph(CH2)2 --, 3-(2-aminoethyl)-5-(2-(4-methoxyphenyl)ethyl)indole]", "Ki": 3.2},
      {"smiles": "NCCc1c[nH]c2ccc(CCc3ccccc3)cc12", "note": "[Ph(CH2)2 --, 3-(2-aminoethyl)-5-(2-phenylethyl)-indole]", "Ki": 2.9},
      {"smiles": "NCCc1c[nH]c2ccc(OCCc3ccccc3)cc12", "note": "[Ph(CH2)2 O--, 3-(2-aminoethyl)-5-(2-phenylethyloxy)indole]", "Ki": 1},
      {"smiles": "NCCc1c[nH]c2ccc(OCCCCc3ccccc3)cc12", "note": "[Ph(CH2)4 O--, 3-(2-aminoethyl)-5-(4-phenylbutyloxy)indole]", "Ki": 0.19},
      {"smiles": "NCCc1c[nH]c2ccc(OCCCCCc3ccccc3)cc12", "note": "[Ph(CH2)5 O--, 3-(2-aminoethyl)-5-(5-phenylpentyloxy)indole]", "Ki": 0.64},
      {"smiles": "NCCc1c[nH]c2ccc(OCCCCCCc3ccccc3)cc12", "note": "[Ph(CH2)6 O--, 3-(2-aminoethyl)-5-(6-phenylhexyloxy)indole]", "Ki": 1.9},
      {"smiles": "NCCc1c[nH]c2ccc(OCCCCCCCCc3ccccc3)cc12", "note": "[Ph(CH2)8 O--, reference compound]", "Ki": 13.3},
      {"smiles": "NCCc1c[nH]c2ccc(Cc3ccccc3)cc12", "note": "[PhCH2 --, 3-(2-aminoethyl)-5-benzylindole]", "Ki": 3.7},
      {"smiles": "NCCc1c[nH]c2ccc(OCc3ccccc3)cc12", "note": "[PhCH2 O--, 3-(2-aminoethyl)-5-benzyloxyindole, reference compound]", "Ki": 10.5}
    ]}
  ]
}
